Results taken from ChEMBL document CHEMBL1201862, “PubChem BioAssay data set” (2004).
The source made the active and inactive calls.

Tests used:
[1] = biological target: T1, Small ubiquitin-related modifier 1 (Homo sapiens, UniProt P63165); test: SUMO1 protein-protein binding blockers, potency – biochemical, FRET, dose response (AID 624383); type: functional; settings: read-out: IC50_Mean
Streptokinase A = biological target: T2, Streptokinase A (Streptococcus pyogenes serotype M1, UniProt P10520); test: viability-normalized secreted streptokinase activity reduction – plasminogen activation absorbance, OD405, dose response (AID 1914); type: functional, Streptococcus pyogenes M1 GAS;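 note: secreted streptokinase activity via plasminogen activation per viability signal from cell pellet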
T2 sequence (P10520 whole entry): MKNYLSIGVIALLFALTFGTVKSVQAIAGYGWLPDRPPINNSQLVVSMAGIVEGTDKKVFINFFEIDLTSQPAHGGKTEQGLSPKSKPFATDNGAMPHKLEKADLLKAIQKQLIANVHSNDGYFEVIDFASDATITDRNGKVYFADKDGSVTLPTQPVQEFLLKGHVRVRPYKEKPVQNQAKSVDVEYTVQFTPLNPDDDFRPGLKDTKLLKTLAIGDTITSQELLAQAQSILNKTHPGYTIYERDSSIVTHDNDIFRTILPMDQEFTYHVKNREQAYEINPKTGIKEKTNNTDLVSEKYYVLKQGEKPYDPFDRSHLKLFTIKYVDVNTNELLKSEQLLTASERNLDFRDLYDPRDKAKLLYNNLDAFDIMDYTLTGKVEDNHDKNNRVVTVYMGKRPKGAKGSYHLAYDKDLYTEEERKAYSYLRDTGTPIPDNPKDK

[2] = biological target: T1, Small ubiquitin-related modifier 1; test: SUMO1 protein interaction blockers, potency – biochemical, fluorescence polarization, uHTS hits, dose response (AID 624382); type: functional; settings: read-out: IC50_Mean
[3] = system: Streptococcus sp. 'group A'; test: Streptococcus pyogenes SK(-)GAS viability under kanamycin – luminescence, BacTiterGlo, confirmation, counter-screen for streptokinase expression inhibitor project, dose response (AID 1900); type: functional, organism-based
[4] = biological target: T3, Small ubiquitin-related modifier 2 (Homo sapiens, UniProt P61956); test: disruption of SUMO2 interaction with SIM peptide – biochemical, fluorescence polarization, uHTS hits, selectivity assay for SUMO1 interaction inhibitor project, dose response (AID 624385); type: functional; settings: read-out: IC50_Mean
[5] = biological target: T3, Small ubiquitin-related modifier 2; test: SUMO2 binding disruption by SUMO1 hits – biochemical, FRET, human SUMO2, uHTS hits, selectivity assay for SUMO1 interaction inhibitor project, dose response (AID 624384); type: functional; settings: read-out: IC50_Mean
[6] = viability of uninfected HEp-2 cells – cell-based, HTS, cytotoxicity control for RSV inhibitor project, dose response (AID 2410); type: functional; settings: human respiratory syncytial virus
Streptococcus = test: GAS UMAA2166 growth inhibition – luminescence, BacTiterGlo, counter-screen for streptokinase expression inhibitor project, dose response (AID 1915); type: functional, organism-based;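 note: potency for reduction of bacterial viability or growth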
[7] = biological target: Induced myeloid leukemia cell differentiation protein Mcl-1 (Homo sapiens, UniProt Q07820); type: functional
[8] = TNFa-induced NF-kB reporter signal decrease – HEK293 LMP1 reporter cells, dry powder, set 2, selectivity assay for EBV LMP1 NF-kB inhibitor project, dose response (AID 624369); type: functional
[9] = activation of miR-122 Renilla sensor silencing – cell-based, Huh7 psiCHECK-miR122, Renilla luciferase, cherry-picked, dose response (AID 651956); type: functional;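 note: huh7 hepatoma cells stably carrying a psiCHECK-2 miR-122 sensor plasmid; renilla luciferase signal reporting endogenous miR-122 activity after 48 h compound exposure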
[10] = biological target: T4, Sentrin-specific protease 8 (Homo sapiens, UniProt Q96LD8); type: functional
T4 sequence (Q96LD8 whole entry): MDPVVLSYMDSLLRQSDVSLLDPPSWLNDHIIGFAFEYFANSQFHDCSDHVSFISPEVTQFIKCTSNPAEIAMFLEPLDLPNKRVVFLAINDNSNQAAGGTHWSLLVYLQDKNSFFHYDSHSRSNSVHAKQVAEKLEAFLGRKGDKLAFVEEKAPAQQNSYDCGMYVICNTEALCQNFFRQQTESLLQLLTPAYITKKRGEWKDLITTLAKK

[11] = biological target: T4, Sentrin-specific protease 8; type: functional; remark: listed apart in the source
[12] = biological target: T5, Corticotropin-releasing factor receptor 2/Corticotropin-releasing factor-binding protein (Homo sapiens, UniProt P24387+Q13324); test: activators of CRF receptor 2 with binding protein – uHTS hits, confirmation (AID 602473); type: functional; settings: read-out: EC50_Mean
T5 sequence (Q13324 whole entry): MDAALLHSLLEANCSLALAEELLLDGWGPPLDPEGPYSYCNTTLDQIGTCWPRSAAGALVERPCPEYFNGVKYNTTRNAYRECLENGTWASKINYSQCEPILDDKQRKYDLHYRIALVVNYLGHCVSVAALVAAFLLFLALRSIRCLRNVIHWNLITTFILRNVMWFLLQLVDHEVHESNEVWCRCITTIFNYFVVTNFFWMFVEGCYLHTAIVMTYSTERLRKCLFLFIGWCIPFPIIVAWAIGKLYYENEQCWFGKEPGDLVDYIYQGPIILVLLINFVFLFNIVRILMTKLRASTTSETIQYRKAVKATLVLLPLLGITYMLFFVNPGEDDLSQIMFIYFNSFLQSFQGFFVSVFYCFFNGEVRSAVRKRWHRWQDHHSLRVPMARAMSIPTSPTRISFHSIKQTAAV
T5 sequence (P24387 whole entry): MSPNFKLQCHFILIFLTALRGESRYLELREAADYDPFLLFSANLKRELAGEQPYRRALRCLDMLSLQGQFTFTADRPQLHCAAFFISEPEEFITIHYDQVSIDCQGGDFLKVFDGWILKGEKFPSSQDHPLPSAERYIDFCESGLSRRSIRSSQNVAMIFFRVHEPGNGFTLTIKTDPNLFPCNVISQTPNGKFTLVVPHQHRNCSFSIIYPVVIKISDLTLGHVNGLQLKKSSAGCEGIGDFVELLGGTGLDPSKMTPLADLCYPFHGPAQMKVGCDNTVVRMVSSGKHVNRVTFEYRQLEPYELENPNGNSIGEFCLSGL

[13] = microbe, parasite or virus in culture; type: functional; settings: Mycobacterium tuberculosis
[14] = biological target: T5, Corticotropin-releasing factor receptor 2/Corticotropin-releasing factor-binding protein; test: Dose Response confirmation of uHTS hits for small molecule antagonists of the CRF-binding protein and CRF-R2 receptor complex.; type: functional; settings: read-out: IC50_Mean
[15] = blockers of CRF-binding protein–CRF-R2 complex – cell-based, uHTS hits, 384-well, dose response (AID 651639); type: functional, Homo sapiens; settings: read-out: IC50_Mean
[16] = biological target: Aryl hydrocarbon receptor (Homo sapiens, UniProt P35869); settings: Potency;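 note: confirmatory quantitative high-throughput screen measuring activation of the AhR signaling pathway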
[17] = biological target: Mitochondrial peptide methionine sulfoxide reductase (Bos taurus, UniProt P54149); type: functional;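 note: absorbance read-out, biochemical high-throughput dose-response screen for MsrA inhibitors, confirmatory; recombinant bovine MsrA coupled to E. coli TrxB with NADPH and selenocystamine; potency is for inhibitors of MsrA activity on DMSO substrate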
Protein S100-A4 = Protein S100-A4 (Homo sapiens, UniProt P26447); test: human S100A4 peptide interaction inhibition curves – biochemical, fluorescence polarization, cherry-picked hits, dose response (AID 687001); type: functional
Troponin, cardiac muscle = Troponin, cardiac muscle (Homo sapiens, UniProt P19429+P45379+P63316); test: Fluorescence-based biochemical high throughput dose response assay for activators of the calcium sensitivity of cardiac Regulated Thin Filaments (RTF). [Related pubchem assays (depositor defined):AID493008, AID493018, AID504382, AID504383]; type: protein-complex assay

In the case of `COc1ccc(O)c(C(=O)c2cc(SCC(=O)O)c3nc4sc5c(c4c(=O)n3c2)CCCC5)c1`, the IC50 [1] is reported as 51.6 µM (inactive), the EC50 (Streptokinase A) is reported as 16.4 µM (inconclusive) and the IC50 [2] is reported as 2.14 µM (active). For the same compound, the EC50 [3] was 2.67 µM (active), the IC50 [4] was 6.24 µM (active) and the IC50 [5] was 46.2 µM (inactive). For the same compound, the CC50 [6] was 29.1 µM (active), the EC50 (Streptococcus) was 18.5 µM (inconclusive) and the IC50 [7] was 1.49 µM (active).
For `C[C@H]1CN([C@@H](C)CO)C(=O)c2cc(C#Cc3ccccc3F)cnc2O[C@@H]1CN(C)C(=O)C1CCCCC1`, the AbsAC35 [8] was 66.69 µM and the AC50 [9] was 0.565 µM (active).
For `CC(NC(=O)COC(=O)c1ccc([N+](=O)[O-])o1)c1ccccc1` (stereo unspecified), the IC50 [10] was 7.54 µM (active) and the IC50 [11] was 11.8 µM (active).
For `Cc1cccc(N(C(=O)c2nsc(Cl)c2Cl)C(C(=O)NC2CCCC2)c2ccc(O)cc2)c1C` (stereo unspecified), the EC50 [12] was > 53 µM (inactive), the CC50 [13] was 39 µM (active) and the IC50 [14] was 6.4 µM (active). The IC50 [15] was > 20 µM (inactive).
In the case of `CC(C)N1C(=O)c2ccccc2NS1(=O)=O` [BENTAZON], the AC50 [16] is reported as 79.4 µM (inconclusive).
With `N#Cc1c(-n2cccc2/C=N/O)sc2c1CCCC2` the IC50 [17] was 155 µM (inactive).
With `Cc1ccc(N2C3=C(C(=O)CC(C)(C)C3)C(c3cn(C)nc3C)C3=C2CC(C)(C)CC3=O)cc1` the AC50 (Protein S100-A4) was 2.04 µM (active) and the EC50 (Troponin, cardiac muscle) was 6.28 µM (active).
